Source: US20260001928A1 (CORTERIA PHARMACEUTICALS, priority 2022, published 2026)
*1 amine or outer side, *2 acyl side, *3 side chain or, on linkers, in order; H or OH if unused. Where a SMILES comes first, the peptide text is derived from it. Side-chain parts run from the residue outwards. [ ]: non-standard residue; d: D form. The star is where a group is joined. C16 diacid = O=C(O)CCCCCCCCCCCCCCC(=O)*; γGlu = O=C(O)[C@H](CCC(=O)[*:2])N[*:1]; αMeL = CC(C)C[C@](C)(N)C(=O)O; Ac6c = NC1(C(=O)O)CCCCC1; Ac5c = NC1(C(=O)O)CCCC1

Assays:
human CRF2a receptor = target: T1, human CRF2a receptor (Homo sapiens, UniProt Q13324); experiment: Activity at human CRF2a receptor, cAMP functional assay in TeloHEAC cells; assay type: cell-based; settings: TeloHEAC cells stably expressing human CRF2a receptor, relative to urocortin 2 (100 nM = 100%)
T1 construct: expressed in transfected cells; host or cells: TeloHEAC cells
T1 sequence (Q13324 1-411): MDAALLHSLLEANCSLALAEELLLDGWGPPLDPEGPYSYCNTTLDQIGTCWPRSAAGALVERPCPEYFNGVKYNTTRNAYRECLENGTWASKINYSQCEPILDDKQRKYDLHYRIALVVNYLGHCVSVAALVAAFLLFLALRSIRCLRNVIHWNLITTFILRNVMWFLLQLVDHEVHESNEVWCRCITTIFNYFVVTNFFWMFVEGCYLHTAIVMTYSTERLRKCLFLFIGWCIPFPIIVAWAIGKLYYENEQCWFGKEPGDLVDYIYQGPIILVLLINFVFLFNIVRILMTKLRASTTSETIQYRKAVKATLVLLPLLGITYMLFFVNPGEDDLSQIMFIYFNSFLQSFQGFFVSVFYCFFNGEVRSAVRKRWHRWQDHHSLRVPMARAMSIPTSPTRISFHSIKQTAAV
Method in brief: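 cAMP accumulation was measured by HTRF 665/620 nm ratio after 30 min at 37° C compound exposure (16 twofold dilutions) of CRF2a-expressing TeloHEAC cells, 10000/well, in HEPES-buffered HBSS plus IBMX. Activity was normalised to urocortin 2 at 100 nM (100%), and EC50 was the concentration giving half-maximal activation.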

CFR1R receptor = target: T2, CFR1R receptor (Homo sapiens, UniProt P34998); experiment: Activity at anti-target CFR1R receptor, cAMP assay in CRF1R-overexpression CHO-K1 cells; assay type: cell-based; settings: 100% = Sauvagine at 100 nM; for EC50: cAMP
T2 construct: host or cells: CHO-K1 (clone 2)
T2 sequence (P34998 24-415): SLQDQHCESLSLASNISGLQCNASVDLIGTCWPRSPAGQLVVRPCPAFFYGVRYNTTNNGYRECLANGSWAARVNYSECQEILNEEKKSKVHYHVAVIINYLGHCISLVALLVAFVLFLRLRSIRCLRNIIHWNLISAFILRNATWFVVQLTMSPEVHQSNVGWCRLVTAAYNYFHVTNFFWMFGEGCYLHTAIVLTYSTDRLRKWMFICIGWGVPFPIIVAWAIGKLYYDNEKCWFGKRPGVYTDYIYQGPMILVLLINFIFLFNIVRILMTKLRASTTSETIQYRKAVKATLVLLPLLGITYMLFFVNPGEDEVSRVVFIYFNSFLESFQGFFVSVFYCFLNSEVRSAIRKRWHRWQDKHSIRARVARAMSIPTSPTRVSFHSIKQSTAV
Method in brief: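 Run as for the TeloHAEC line, except the full-activation control well received Sauvagine (100 nM) and final density was 4000 cells/well. Cells from clone 2 came from frozen aliquots of near-confluent cultures.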

SMILES | EC50 (human CRF2a receptor) [nM] | Emax (% I) (CFR1R receptor) | EC50 (CFR1R receptor) [nM]
CC[C@H](C)[C@H](NC(C)=O)C(=O)N[C@H](C(=O)N[C@@H](CC(C)C)C(=O)N[C@@H](CO)C(=O)N[C@@H](CC(C)C)C(=O)N[C@@H](CC(=O)O)C(=O)N[C@@H](C(=O)N1CCC[C@H]1C(=O)N[C@H](C(=O)N[C@@H](CCCCN)C(=O)N[C@@](C)(CC(C)C)C(=O)N[C@@H](CCCCNC(=O)CC[C@H](NC(=O)CCCCCCCCCCCCCCC(=O)O)C(=O)O)C(=O)N[C@@H](CCCCN)C(=O)N[C@H](C(=O)N[C@@H](CC(C)C)C(=O)N[C@@H](CC(C)C)C(=O)N[C@@H](CCC(=O)O)C(=O)N[C@@H](CCC(N)=O)C(=O)N[C@@H](CCC(=O)O)C(=O)N[C@@H](CCCCN)C(=O)N[C@@H](CCC(N)=O)C(=O)N[C@@H](CCCCN)C(=O)N[C@@H](CCCCN)C(=O)N[C@@H](CCC(N)=O)C(=O)N[C@@H](CCCNC(=N)N)C(=O)N[C@@H](CCC(=O)O)C(=O)N[C@@H](CCC(N)=O)C(=O)N[C@@H](C)C(=O)N[C@@H](CCC(=O)O)C(=O)N[C@H](C(=O)N[C@@H](CC(N)=O)C(=O)N[C@H](C(=O)N[C@@H](CCC(N)=O)C(=O)N[C@H](C(=O)N[C@@H](CC(C)C)C(=O)N[C@@H](C)C(=O)N[C@@H](CCC(N)=O)C(=O)N[C@H](C(N)=O)C(C)C)[C@@H](C)CC)C(C)C)[C@@H](C)O)[C@@H](C)CC)[C@@H](C)CC)C(C)C)C(C)C [compound 50] (Ac-IVLSLD[dV]PIK[αMeL]K([γGlu-C16 diacid])KILLEQEKQKKQREQAETNVQILAQV-NH2) | 0.26 | 9 | > 250
CC[C@H](C)[C@H](NC(C)=O)C(=O)N[C@H](C(=O)N[C@@H](CC(C)C)C(=O)N[C@@H](CO)C(=O)N[C@@H](CC(C)C)C(=O)N[C@@H](CC(=O)O)C(=O)N[C@@H](C(=O)N1CCC[C@H]1C(=O)N[C@H](C(=O)N[C@@H](CCCCN)C(=O)N[C@@](C)(CC(C)C)C(=O)N[C@@H](CCCCNC(=O)CC[C@H](NC(=O)CCCCCCCCCCCCCCC(=O)O)C(=O)O)C(=O)N[C@@H](CCCCN)C(=O)N[C@H](C(=O)N[C@@H](CC(C)C)C(=O)N[C@@H](CC(C)C)C(=O)N[C@@H](CCC(=O)O)C(=O)N[C@@H](CCC(N)=O)C(=O)N[C@@H](CCC(=O)O)C(=O)N[C@@H](CCCCN)C(=O)N[C@@H](CCC(N)=O)C(=O)N[C@@H](CCCCN)C(=O)N[C@@H](CCCCN)C(=O)N[C@@H](CCC(N)=O)C(=O)N[C@@H](CCCNC(=N)N)C(=O)N[C@@H](CCC(=O)O)C(=O)N[C@@H](CCC(N)=O)C(=O)N[C@@H](C)C(=O)N[C@@H](CCC(=O)O)C(=O)N[C@H](C(=O)N[C@@H](CC(=O)O)C(=O)N[C@@H](CCCCN)C(=O)N[C@@H](CCC(N)=O)C(=O)N[C@H](C(=O)N[C@@H](CC(C)C)C(=O)N[C@@H](C)C(=O)N[C@@H](CCC(N)=O)C(=O)N[C@H](C(N)=O)C(C)C)[C@@H](C)CC)[C@@H](C)O)[C@@H](C)CC)[C@@H](C)CC)C(C)C)C(C)C [compound 53] (Ac-IVLSLD[dV]PIK[αMeL]K([γGlu-C16 diacid])KILLEQEKQKKQREQAETDKQILAQV-NH2) | 8.05 | 5 | > 250
CC[C@H](C)[C@H](NC(C)=O)C(=O)N[C@H](C(=O)N[C@@H](CC(C)C)C(=O)N[C@@H](CO)C(=O)N[C@@H](CC(C)C)C(=O)N[C@@H](CC(=O)O)C(=O)N[C@@H](C(=O)N1CCC[C@H]1C(=O)N[C@H](C(=O)N[C@@H](CCCCN)C(=O)N[C@@H](CC(C)C)C(=O)N[C@@H](CCCCNC(=O)CC[C@H](NC(=O)CCCCCCCCCCCCCCC(=O)O)C(=O)O)C(=O)N[C@@H](CCCCN)C(=O)N[C@H](C(=O)N[C@@H](CC(C)C)C(=O)N[C@@H](CC(C)C)C(=O)N[C@@H](CCC(=O)O)C(=O)N[C@@H](CCC(N)=O)C(=O)N[C@@H](CCC(=O)O)C(=O)N[C@@H](CCCCN)C(=O)N[C@@H](CCC(N)=O)C(=O)N[C@@H](CCCCN)C(=O)N[C@@H](CCCCN)C(=O)N[C@@H](CCC(N)=O)C(=O)N[C@@H](CCCNC(=N)N)C(=O)N[C@@H](CCC(=O)O)C(=O)N[C@@H](CCC(N)=O)C(=O)N[C@@H](C)C(=O)N[C@@H](CCC(=O)O)C(=O)N[C@H](C(=O)N[C@@H](CC(N)=O)C(=O)N[C@@H](CCC(=O)O)C(=O)N[C@@H](CCC(N)=O)C(=O)N[C@H](C(=O)N[C@@H](CC(C)C)C(=O)N[C@@H](C)C(=O)N[C@@H](CCC(N)=O)C(=O)N[C@H](C(N)=O)C(C)C)[C@@H](C)CC)[C@@H](C)O)[C@@H](C)CC)[C@@H](C)CC)C(C)C)C(C)C [compound 56] (Ac-IVLSLD[dV]PIKLK([γGlu-C16 diacid])KILLEQEKQKKQREQAETNEQILAQV-NH2) | 0.3 | 3 | > 250

Continued, values first:

EC50 (human CRF2a receptor) [nM] | Emax (% I) (CFR1R receptor) | EC50 (CFR1R receptor) [nM] | SMILES
0.81 | 9 | > 250 | CC[C@H](C)[C@H](NC(C)=O)C(=O)N[C@H](C(=O)N[C@@H](CC(C)C)C(=O)N[C@@H](CO)C(=O)N[C@@H](CC(C)C)C(=O)N[C@@H](CC(=O)O)C(=O)N[C@@H](C(=O)N1CCC[C@H]1C(=O)N[C@H](C(=O)N[C@@H](CCCCN)C(=O)N[C@@H](CC(C)C)C(=O)N[C@@H](CCCCNC(=O)CC[C@H](NC(=O)CCCCCCCCCCCCCCC(=O)O)C(=O)O)C(=O)N[C@@H](CCCCN)C(=O)N[C@H](C(=O)N[C@@H](CC(C)C)C(=O)N[C@@H](CC(C)C)C(=O)N[C@@H](CCC(=O)O)C(=O)N[C@@H](CCC(N)=O)C(=O)N[C@@H](CCC(=O)O)C(=O)N[C@@H](CCCCN)C(=O)N[C@@H](CCC(N)=O)C(=O)N[C@@H](CCCCN)C(=O)N[C@@H](CCCCN)C(=O)N[C@@H](CCC(N)=O)C(=O)N[C@@H](CCCNC(=N)N)C(=O)N[C@@H](CCC(=O)O)C(=O)N[C@@H](CCC(N)=O)C(=O)N[C@@H](C)C(=O)N[C@@H](CCC(=O)O)C(=O)N[C@H](C(=O)N[C@@H](CC(N)=O)C(=O)NC1(C(=O)N[C@@H](CCC(N)=O)C(=O)N[C@H](C(=O)N[C@@H](CC(C)C)C(=O)N[C@@H](C)C(=O)N[C@@H](CCC(N)=O)C(=O)N[C@H](C(N)=O)C(C)C)[C@@H](C)CC)CCCCC1)[C@@H](C)O)[C@@H](C)CC)[C@@H](C)CC)C(C)C)C(C)C [compound 59] (Ac-IVLSLD[dV]PIKLK([γGlu-C16 diacid])KILLEQEKQKKQREQAETN[Ac6c]QILAQV-NH2)
0.34 | 5 | > 250 | CC[C@H](C)[C@H](NC(C)=O)C(=O)N[C@H](C(=O)N[C@@H](CC(C)C)C(=O)N[C@@H](CO)C(=O)N[C@@H](CC(C)C)C(=O)N[C@@H](CC(=O)O)C(=O)N[C@@H](C(=O)N1CCC[C@H]1C(=O)N[C@H](C(=O)N[C@@H](CCCCN)C(=O)N[C@@H](CC(C)C)C(=O)N[C@@H](CCCCNC(=O)CC[C@H](NC(=O)CCCCCCCCCCCCCCC(=O)O)C(=O)O)C(=O)N[C@@H](CCCCN)C(=O)N[C@H](C(=O)N[C@@H](CC(C)C)C(=O)N[C@@H](CC(C)C)C(=O)N[C@@H](CCC(=O)O)C(=O)N[C@@H](CCC(N)=O)C(=O)N[C@@H](CCC(=O)O)C(=O)N[C@@H](CCCCN)C(=O)N[C@@H](CCC(N)=O)C(=O)N[C@@H](CCCCN)C(=O)N[C@@H](CCCCN)C(=O)N[C@@H](CCC(N)=O)C(=O)N[C@@H](CCCNC(=N)N)C(=O)N[C@@H](CCC(=O)O)C(=O)N[C@@H](CCC(N)=O)C(=O)N[C@@H](C)C(=O)N[C@@H](CCC(=O)O)C(=O)N[C@H](C(=O)N[C@@H](CC(N)=O)C(=O)NC1(C(=O)N[C@@H](CCC(N)=O)C(=O)N[C@H](C(=O)N[C@@H](CC(C)C)C(=O)N[C@@H](C)C(=O)N[C@@H](CCC(N)=O)C(=O)N[C@H](C(N)=O)C(C)C)[C@@H](C)CC)CCCC1)[C@@H](C)O)[C@@H](C)CC)[C@@H](C)CC)C(C)C)C(C)C [compound 60] (Ac-IVLSLD[dV]PIKLK([γGlu-C16 diacid])KILLEQEKQKKQREQAETN[Ac5c]QILAQV-NH2)
